The source made the active and inactive calls. No rule for the calls is given here.
Test system: MRP1 cells, doxorubicin viability shift, 10 uM compound
Test: doxorubicin EC50 increase in MRP-1 cells, dose response, cell-based, doxorubicin EC50 shift (AID 844)
Conditions: for EC50: measured here: doxorubicin EC50 with compound

Structure (SMILES) | fold increase in Dox EC50 | EC50 [µM]
Cc1ccnc(NC(=O)COc2ccc3oc4c(c3c2)CCCC4)c1 | 0.78 (inactive) | 4.21
COc1cc(C2NC(=O)NC(C)=C2C(=O)OCc2ccc(C)cc2)cc(OC)c1O (stereo not drawn) | 0.68 (inactive) | 3.65
CNC[C@H](O)c1ccc(O)c(O)c1 | 0.69 (inactive) | 3.75
COc1ccc(CNc2nc(NCc3ccc(OC)cc3)n(C(=O)c3ccccc3[N+](=O)[O-])n2)cc1 | 0.72 (inactive) | 3.9
CC(=O)Nc1nc(C)c(Oc2ccc(Cl)cc2Cl)c(=O)[nH]1 | 0.74 (inactive) | 4.01
CCC(Sc1nc2ccccc2o1)C(=O)Nc1nnc(C)s1 (stereo not drawn) | 1.34 (inactive) | 7.22
Cc1cc(/C=C2\NC(=O)N(Cc3ccc(Cl)cc3)C2=O)c(C)n1C | 1.1 (inactive) | 5.93
O=C(Nc1ccn(Cc2ccccc2F)n1)c1ccc(COc2ccc(Cl)cc2Cl)o1 | 0.95 (inactive) | 5.15
CCCOc1ccc(CSc2ncn[nH]2)cc1 | 0.89 (inactive) | 4.79
O=C(CCN1C(=O)/C(=C\c2ccccc2)SC1=S)NNC(=O)c1cccnc1 | 1.2 (inactive) | 6.49
FC(F)(F)c1cccc(CNc2ncccc2-c2nc3cc(Cl)ccc3o2)c1 | 0.93 (inactive) | 5.03
Cc1cc2nc(/N=C(\N)NC(=O)N3c4ccccc4Sc4ccccc43)nc(C)c2cc1C | 1.69 | 9.15
Cc1cc(C)nc(NS(=O)(=O)c2ccc(NC(=O)c3ccc4c(c3)OCO4)cc2)n1 | 0.94 (inactive) | 5.05
Cc1ccc(C(C)C)c(OCc2nc(-c3nonc3N)no2)c1 | 1.51 | 8.18
CCC1(C)Cc2c(sc3nnn(CC(=O)Nc4ccc(C)cc4)c(=O)c23)CO1 (stereo not drawn) | 1.07 (inactive) | 5.79
Cc1c(NC(=O)c2ccccc2NS(=O)(=O)c2ccc(Br)cc2)c(=O)n(-c2ccccc2)n1C | 0.65 (inactive) | 3.53
O=C(Nc1nnc(N2CCCCCC2)s1)c1cc(-c2ccc(Br)cc2)on1 | 0.91 (inactive) | 4.91
CCOC(=O)CCCCC(=O)c1[nH]c(=O)[nH]c1CSc1nc(-c2ccccc2)c(C#N)c(=O)[nH]1 | 1.22 (inactive) | 6.57
CC1CCc2c(sc3nc(CSc4ncn[nH]4)[nH]c(=O)c23)C1 (stereo not drawn) | 0.81 (inactive) | 4.4
CCCCCC(=O)Nc1ccc(S(=O)(=O)Nc2ccc(Cl)nn2)cc1 | 1.12 (inactive) | 6.04
Cc1ccc(/C=C2\SC(=S)N(c3c(C)n(C)n(-c4ccccc4)c3=O)C2=O)cc1 | 0.97 (inactive) | 5.23
N=C(N)SCc1nc2ccccn2c1Br | 0.28 (inactive) | 1.49
CCOC(=O)c1ccc(NC(=O)C2CCN(C(=O)c3ccc(OC)c(OC)c3)CC2)cc1 | 0.99 (inactive) | 5.35
Cc1onc(-c2c(F)cccc2Cl)c1C(=O)Nc1sc2c(c1C#N)CCC(C(C)(C)C)C2 (stereo not drawn) | 0.48 (inactive) | 2.61
CC1=NN(c2ccc(C)cc2C)C(=O)C1C(c1ccccc1O)C1C(=O)N(c2ccc(C)cc2C)N=C1C (stereo not drawn) | 0.71 (inactive) | 3.81
COc1cc(/C=C(\C#N)c2ccccn2)ccc1OCc1ccccc1Cl | 1.1 (inactive) | 5.95
O=C(CC(NC(=O)C(F)(F)F)c1ccccc1)Nc1nnc(CCc2ccccc2)s1 (stereo not drawn) | 1.85 | 9.97
COc1cc(C(c2sc3ncnn3c2O)N2CCN(c3ccccc3F)CC2)cc(OC)c1OC (stereo not drawn) | 0.81 (inactive) | 4.37
CCCCOc1ccc(C(=O)Oc2ccc(C)nc2)cc1 | 0.9 (inactive) | 4.88

From PubChem BioAssay AID844 (SRMLSC, 2007)
